Assays:
[1] = system: HBV; assay: In vivo pharmacodynamic experiment, HBsAg in serum; parameters: species or system HBV transgenic BALB/c; conditions: intravenous injection, LAM 150 mg/kg, ETV 3.2 mg/kg, intron2 3 × 10^10, intron5 1.5 × 10^11 vg/animal, relative, D 0 = 1
Method: (§1) Two drugs having two structures scAAV2/8-H1-shRNA2-intron2 and scAAV2/8-H1-shRNA2-intron5 were compared with the commercial drugs lamivudine and entecavir for evaluating in vivo efficacy. The administration mode was intravenous injection, and 14 days was a blood collection period. After separating serum samples, HBsAg and HBV DNA were detected. The grouping of animal experiments is shown as follows:
(§2) The experiment was conducted for total of […] (38 weeks). For the experimental method, see Example 2 “4. Expression and detection of target gene” The detection results are shown in FIG. 40 and Table 2-12 (BsAg detection), and FIG. 41 and Table 2-13 (BV DNA detection).

[2] = system: HBV; assay: In vivo pharmacodynamic experiment, HBV DNA in serum; parameters: species or system HBV transgenic BALB/c; conditions: intravenous injection, LAM 150 mg/kg, ETV 3.2 mg/kg, intron2 3 × 10^10, intron5 1.5 × 10^11 vg/animal, relative, D 0 = 1
Method: as §1, §2

SMILES	HBsAg detection in serum, D 0 [1]	HBsAg detection in serum, D 14 [1]	HBsAg detection in serum, D 28 [1]	HBsAg detection in serum, D 35 [1]	HBsAg detection in serum, D 49 [1]	HBsAg detection in serum, D 70 [1]	HBsAg detection in serum, D 98 [1]	HBsAg detection in serum, D 126 [1]	HBsAg detection in serum, D 154 [1]	HBsAg detection in serum, D 182 [1]	HBsAg detection in serum, D 210 [1]	HBsAg detection in serum, D 238 [1]	HBsAg detection in serum, D 266 [1]	HBV DNA detection in serum, D 0 [2]	HBV DNA detection in serum, D 14 [2]	HBV DNA detection in serum, D 28 [2]	HBV DNA detection in serum, D 35 [2]	HBV DNA detection in serum, D 49 [2]	HBV DNA detection in serum, D 70 [2]	HBV DNA detection in serum, D 98 [2]	further results
C=C1[C@H](CO)[C@@H](O)C[C@@H]1n1cnc2c(=O)[nH]c(N)nc21 [ETV, Entecavir]	1	1.51	1.55	1.8	1.4	1.33	1.34	1.48	0.75	0.81	1.57	0.83	0.94	1	8.68	1.24	1.08	1.25	3.93	1.05	HBV DNA detection in serum, D 126 [2]: 0.72; HBV DNA detection in serum, D 154 [2]: 1.06; HBV DNA detection in serum, D 182 [2]: 3.33; HBV DNA detection in serum, D 210 [2]: 5.5; HBV DNA detection in serum, D 238 [2]: 2.96; HBV DNA detection in serum, D 266 [2]: 1.55
Nc1ccn([C@@H]2CS[C@H](CO)O2)c(=O)n1 [LAM, Lamivudine]	1	0.98	0.96	1.23	1.21	1.01	1.19	1.46	0.66	0.76	1.16	0.5	0.54	1	0.69	0.87	0.72	0.68	1.26	0.41	HBV DNA detection in serum, D 126 [2]: 0.24; HBV DNA detection in serum, D 154 [2]: 0.56; HBV DNA detection in serum, D 182 [2]: 0.8; HBV DNA detection in serum, D 210 [2]: 0.28; HBV DNA detection in serum, D 238 [2]: 0.26; HBV DNA detection in serum, D 266 [2]: 0.07

Reference: patent US20210108197A1, “SHRNA EXPRESSION CASSETTE, POLY[…] CARRYING SAME, AND APPLICATION THEREOF” (priority 2017, published 2021)
